Experimental data taken from ChEMBL document CHEMBL1201862, “PubChem BioAssay data set” (2004).
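Following 48 hours of exposure in 96-well plates, responses at five concentrations were used to interpolate endpoints linearly. The concentration for 50% growth inhibition is given as GI50.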 Activity calls are given as the source filed them. Cut-off read from the data, not from the text of the source: active = GI50 up to about 1.1 µM and inactive = higher.

Tests used:
Test in all cases: NCI-60 cell line screen, 48 h
[1] = system: BT-549
[2] = system: HCC 2998
[3] = system: HL-60
[4] = system: PC-3
[5] = system: ACHN
[6] = system: NCI-H23
[7] = system: RXF 393
[8] = system: EKVX
[9] = system: HCT-15
[10] = system: MCF7
[11] = system: SK-MEL-5
[12] = system: 786-0
[13] = system: K562
[14] = system: HT-29
[15] = system: HOP-92
[16] = system: CCRF-CEM
[17] = system: SNB-75
[18] = system: COLO 205
[19] = system: MOLT-4

Row | SMILES | GI50 [1] | GI50 [2] | GI50 [3] | GI50 [4] | GI50 [5] | GI50 [6] | GI50 [7] | GI50 [8] | GI50 [9] | GI50 [10] | GI50 [11] | GI50 [12] | GI50 [13] | GI50 [14] | GI50 [15] | GI50 [16] | GI50 [17] | GI50 [18] | GI50 [19]
1 | CCCn1cnc2c(SCc3ccc(Cl)cc3)nc(N)nc21 | 29.1 µM (inactive) | 20 µM (inactive) | 18.2 µM (inactive) | 21.2 µM (inactive) | 16.3 µM (inactive) | 31 µM (inactive) | 22.3 µM (inactive) | 15.5 µM (inactive) | 27.3 µM | 31 µM (inactive) | 15.3 µM (inactive) | 29.6 µM (inactive) | 16.2 µM (inactive) | 19.9 µM (inactive) | 44.5 µM (inactive) | 34.2 µM (inactive) | 21.9 µM (inactive) |  | 
2 | CN1C(NN)=NS(=O)(=O)c2ccccc21 | > 100 µM (inactive) | > 100 µM (inactive) | > 100 µM (inactive) | > 100 µM (inactive) | > 100 µM (inactive) | > 100 µM (inactive) | > 100 µM (inactive) | > 100 µM (inactive) | > 100 µM | > 100 µM (inactive) | > 100 µM (inactive) | > 100 µM (inactive) | > 100 µM (inactive) | > 100 µM (inactive) | > 100 µM (inactive) | > 100 µM (inactive) |  | > 100 µM (inactive) | > 100 µM (inactive)
3 | CC1(C)CC(=O)C2=C(C1)NC(=S)C(C#N)C2c1ccccc1 (stereo not given) | > 100 µM (inactive) | > 100 µM (inactive) | > 100 µM (inactive) | > 100 µM (inactive) | > 100 µM (inactive) | > 100 µM (inactive) | > 100 µM (inactive) | > 100 µM (inactive) | > 100 µM | > 100 µM (inactive) | > 100 µM (inactive) | > 100 µM (inactive) | 75.9 µM (inactive) | > 100 µM (inactive) | > 100 µM (inactive) | > 100 µM (inactive) | > 100 µM (inactive) | > 100 µM (inactive) | 
4 | O=C1NC(N/N=C/c2ccccc2)=N/C1=C\c1ccco1 | 23.7 µM (inactive) | 32.1 µM (inactive) | > 100 µM (inactive) | 33.9 µM (inactive) | 21.9 µM (inactive) | 26.4 µM (inactive) | 25.1 µM (inactive) | 36.7 µM (inactive) | 40.6 µM | 40.2 µM (inactive) | 45.9 µM (inactive) | 22.3 µM (inactive) |  | 51.9 µM (inactive) | 11.3 µM (inactive) | 25.6 µM (inactive) | 47.8 µM (inactive) | 57.4 µM (inactive) | 37.1 µM (inactive)
5 | CCC/C=C/C=C/C1CC(O)C(O)C(=O)C1CO (stereo not given) | > 100 µM (inactive) | > 100 µM (inactive) | 48.2 µM (inactive) | 51.1 µM (inactive) | > 100 µM (inactive) | > 100 µM (inactive) | > 100 µM (inactive) | > 100 µM (inactive) | > 100 µM | > 100 µM (inactive) | > 100 µM (inactive) | > 100 µM (inactive) | > 100 µM (inactive) | > 100 µM (inactive) | > 100 µM (inactive) | > 100 µM (inactive) | > 100 µM (inactive) | > 100 µM (inactive) | 
6 | Cc1ccc(Cl)cc1/N=N/C(=O)NNc1cc(Cl)ccc1C | 18.2 µM (inactive) | 40.4 µM (inactive) | 58.9 µM (inactive) | 10.1 µM (inactive) |  | 19.4 µM (inactive) | 21 µM (inactive) |  | 17.1 µM | 27.8 µM (inactive) | 14.2 µM (inactive) |  | 24.2 µM (inactive) | 26.9 µM (inactive) | 15.5 µM (inactive) | 10 µM (inactive) | 13.1 µM (inactive) | 21.9 µM (inactive) | 13.9 µM (inactive)
